# Laboratory results from article PMC6206206, “Behavioral and Pharmacokinetic Profile of Indole-Derived Synthetic Cannabinoids JWH-073 and JWH-210 as Compared to the Phytocannabinoid Δ^9-THC in Rats” (Frontiers in Neuroscience, 2018).
# What was measured:
# [1] = test system: cannabinoid CB1 receptors; settings: cited from earlier work
# [2] = test system: mice; settings: 3–30 mg/kg; ref Marshell et al., 2014; cited from earlier work
# [3] = test system: Wistar rats; experiment: Open field test (locomotor activity, thigmotaxis, time in center); assay type: in vivo; settings: for locomotion in 5 min time intervals (open field): 1 h after administration, vs vehicle
# Experimental: (§1) All behavioral experiments were performed 1 h after sc. drugs administration.
# A square black plastic open field arena (68 × 68 × 30 cm) was placed in a soundproof and diffusely lit room. Each of animals was placed into the center of the arena, in a novel unfamiliar environment, and 1 h after drug administration the behavior was video-recorded for 30 min using the system EthoVision Color pro v. 3.0 (Noldus, NL). Locomotor activity was subsequently analyzed within 5 min blocks/time intervals (1–6). The calculation of the data was performed in the EthoVision software and corrected (smoothed) for movement deviations of < 3 cm. Initially total distance traveled per time block was calculated and data were plotted in the graphs. To evaluate the spatial characteristics of the locomotor activity such as thigmotaxis and time spent in the center of arena, the arena was virtually divided into 5 × 5 identical square zones with 16 located peripherally and nine centrally. Frequency (f) of appearances of the animal in different zones of the arena was used to calculate thigmotaxis (i) (i = ∑fperipheralzones / ∑fallzones) which is a number (value varying from 0 to 1) indicating the probability of appearance in peripheral zones. Time spent in the center of the arena (Tcenter) was calculated Tcenter = ∑timecentralzones (Balikova et al., [2014]; Horsley et al., [2016]; Palenicek et al., [2016]; Tyls et al., [2016]; Hlozek et al., [2017]; Sichova et al., [2017]; Stefkova et al., [2017]).
# To evaluate the effect on the locomotion measured in 5 min intervals, two-way repeated measures ANOVA analysis (factor 1: drug; factor 2: time intervals) was used in software system IBM SPSS version 22. Significant main effects and interaction two-way repeated measures ANOVAs were followed with pairwise comparisons using independent t-test. For repeated measures ANOVAs, where Mauchly's test of sphericity was significant, Greenhouse-Geisser [Greenhouse-Geisser estimate of sphericity (ε) < 0.75 or Huynh-Feldt (ε) >0.75] correction are reported. Degrees of freedom were rounded to whole number for presentational purposes. For independent t-test, where Levene's test for equality of variances was significant, statistics corrected for unequal variances are given p < 0.05 (two tailed) was considered the minimal criterion for statistical significance. For multiple comparisons, t-test was used with Bonferroni correction. The total length of the trajectory over 30-min, thigmotaxis and time in the center, ASR, habituation and PPI were analyzed by one-way ANOVA analysis by using software STATISTICA version 9.0. Where appropriate, ANOVA analyses were followed by the Tukey post-hoc test. Statistical significance was set at p < 0.05 for all analyses.
# [4] = Serum levels of JWH-073 and JWH-210 after sc. administration (LC-MS)
# [5] = test system: Wistar rats; experiment: Prepulse inhibition (PPI) of acoustic startle response (ASR); assay type: in vivo; settings: for alteration of ASR or PPI by acute treatment: all doses tested, sc., 1 h after administration
# Experimental: as §1
# The PPI of ASR took place in two ventilated startle chambers (SR-LAB, San Diego Instruments, California, USA) which were calibrated to ensure equivalent stabilimeter sensitivity between the chambers. The test consists of acclimatization and two sessions, as previuosly described (Direnberger et al., [2012]; Palenicek et al., [2016]; Tyls et al., [2016]; Hlozek et al., [2017]; Sichova et al., [2017]; Stefkova et al., [2017]). Briefly, acclimatization was performed 2 days before the test, when drug-free rats were habituated in 5 min session with five presentations of pulse alone stimuli (115 dB/20 ms) over background white noise (75 dB). On the day of test, the compounds or vehicle were administered sc. 1 h prior to PPI/ASR testing. After acclimatization (5 min with 75 dB background noise), the test started with a short session of six 40 ms 125 dB pulse trials to establish baseline ASR. It was followed by the second session consisting of trials presented in a pseudorandom order: (1) single pulse alone: 40 ms 125 dB; (2) trial of prepulse-pulse: 20 ms prepulse of 83 dB presented 30, 60, and 120 ms (average 70 ms) before 40 ms 125 dB pulse; (C) 60 ms no stimulus. Finally, six […] 125 dB pulse trials were delivered. Habituation was calculated by the percentage reduction in ASR from the initial six, to the final six pulse trials. PPI was calculated as: [100–(mean prepulse–pulse trials/mean pulse alone trials)^*100]. ASR was derived from mean pulse alone trials. Animals with an AVG response lower than 10 were excluded from further analysis as non-responders.
# To evaluate the effect on the locomotion measured in 5 min intervals, two-way repeated measures ANOVA analysis (factor 1: drug; factor 2: time intervals) was used in software system IBM SPSS version 22. […] The total length of the trajectory over 30-min, thigmotaxis and time in the center, ASR, habituation and PPI were analyzed by one-way ANOVA analysis by using software STATISTICA version 9.0. […]
# [6] = Serum levels of Δ^9-THC and its metabolites after sc. administration (GC-MS); settings: after Δ^9-THC 3 mg/kg sc.; for detectability in serum over the measurement intervals: 30 min, 1, 2, 4, 8, 24 h; for maximum serum concentration (Mean ± SEM): n = 6
# [7] = 3 mg/kg sc., vs control, p < 0.01
compound,measurement,setting,value
"CCCCn1cc(C(=O)c2cccc3ccccc23)c2ccccc21 [JWH-073, (1-butylindol-3-yl)-naphthalen-1-ylmethanone]",CB1 binding affinity relative to Δ^9-THC (fold higher),"[1]; vs Δ^9-THC, ref Wiley et al., 1998, Aung et al., 2000, Brents et al., 2012",four-fold higher
same,locomotor activity,[2],dose-dependent reduced locomotor activity
same,locomotion in 5 min time intervals (open field),[3]; 0.1 mg/kg sc.,significantly increased locomotor activity at the 5-10 and 10-15 min time blocks
same,locomotion in 5 min time intervals (open field),[3]; 0.5 mg/kg sc.,"increased locomotion at 0–5, 5–10, 10–15, and 20–25 min onset"
same,total length of the trajectory over 30-min (total locomotor activity),"[3]; 0.5 mg/kg sc., vs control group, p < 0.05",significantly increased locomotor activity
same,locomotion in 5 min time intervals (open field),[3]; 5 mg/kg sc.,reduced the locomotor activity at 15–20 min time block
same,thigmotaxis (probability of appearance in peripheral zones),"[3]; 0.1, 0.5 and 5 mg/kg sc.",neither JWH-073 nor JWH-210 modified the thigmotaxis
same,time spent in the central zones of the open field,"[3]; 0.1, 0.5 and 5 mg/kg sc.",neither JWH-073 nor JWH-210 modified
same,detectability in serum over the measurement intervals,"[4]; 0.5 mg/kg sc., 30 min, 1, 2, 4, 8, 24 h",detectable at all measurement intervals
same,maximum serum concentration (Mean ± SEM),"[4]; 0.5 mg/kg sc., rat serum, n = 8",1.84 ± 0.06 ng/mL
same,Tmax,"[4]; male, Wistar, rat, serum, sc, 0.5 mg/kg",4 h
same,concentration at 24 h,"[4]; male, Wistar, rat, serum, subcutaneous, 0.5 mg/kg",0.41 ± 0.19 ng/mL
same,alteration of ASR or PPI by acute treatment,[5],did not find significant alteration
CCCCCc1cc(O)c2c(c1)OC(C)(C)[C@@H]1CCC(C(=O)O)=C[C@@H]21 [THC-COOH],detectability in serum over the measurement intervals,[6],detectable as Δ^9-THC at all intervals
same,time of maximum serum concentration,[6]; rat serum,1 h
same,maximum serum concentration (Mean ± SEM),[6]; rat serum,10.5 ± 7.27 ng/mL
"CCCCCc1cc(O)c2c(c1)OC(C)(C)[C@@H]1CCC(C)=C[C@@H]21 [Δ^9-THC, Δ9-tetrahydrocannabinol]",Ki,"[1]; ref Huffman et al., 2005, read-out: Ki, affinity for central and peripheral cannabinoid CB1 receptors",41 ± 2 nM
same,thigmotaxis (probability of appearance in peripheral zones),[3]; [7],decreased thigmotaxis
same,time spent in the center of the open field arena,[3]; [7],increased time spent in central zone
same,total trajectory in the open field test,[3]; 1 or 3 mg/kg sc.,did not affect the total trajectory
same,locomotion in 5 min time intervals (open field),[3]; 1 or 3 mg/kg sc.,neither a main effect of drug nor drug × time interval interaction were found
same,detectability in serum over the measurement intervals,[6],detectable as Δ^9-THC at all intervals
same,time of maximum serum concentration,[6]; rat serum,1 h
same,time of second serum peak,[6]; rat serum,8 h
same,maximum serum concentration (Mean ± SEM),[6]; rat serum,12.1 ± 3.06 ng/mL
same,"prepulse inhibition (PPI), post-hoc","[5]; 1 mg/kg sc., p = 0.06",slight not significant decrease of PPI
same,alteration of ASR or PPI by acute treatment,[5],did not find significant alteration
